Data as given in patent US20090234018A1, “Non-Standard Amino Acid Conjugates of Amphetamine and Processes for Making and Using the Same” (priority 2006, published 2009).
Read-outs that look alike come from different tables or passages of the source.

Assays:
[1] = Intranasal PK study of d-amphetamine, hArg-Amp, Orn-Amp (Example 10); conditions: rat; for % Tmax: relative to d-amp
[2] = PK of d-amphetamine after parenteral (intranasal, intravenous) administration of hArg-Amp (Example 1)
[3] = Intravenous PK study of d-amphetamine, hArg-Amp, Orn-Amp (Example 11); conditions: rat, relative to d-amp
[4] = Average of 4 oral PK studies of Lys-Amp and hArg-Amp (Example 7, Table 3); conditions: average of 4 oral studies, n=20; relative to Lys-Amp
[5] = rat, oral; relative to hArg-Amp
[6] = Oral PK study of Lys-Amp, hArg-Amp, Orn-Amp and Cit-Amp (Example 9); conditions: rat; for % Tmax: relative to Lys-Amp
[7] = Oral gavage PK study of Lys-Amp and hArg-Amp, plasma d-amphetamine by ELISA (Example 7); conditions: rat, relative to Lys-Amp
[8] = plasma d-amphetamine, given in minutes

C[C@H](N)Cc1ccccc1 [d-amp, d-amphetamine]
Tmax [1, 8]: 15 m
% Tmax [1]: 100%

C[C@@H](Cc1ccccc1)NC(=O)[C@@H](N)CCCCN=C(N)N.Cl.Cl [hArg-Amp, l-homoarginine-d-amphetamine dihydrochloride]
release of amphetamine [2]: < 50%
% Tmax [1]: 1600%
% Tmax [3]: 100%
% Tmax [4]: 400%
% Tmax [5]: 100%
% Tmax [6]: 200%
% Tmax [7]: 133%

1-citrulline-d-amphetamine hydrochloride [Cit-Amp]
Tmax compared to Lys-Amp [6]: significantly shifted the Tmax
Tmax [6, 8]: 15 m
% Tmax [6]: 25%

l-lysine-d-amphetamine [Lys-Amp, reference compound]
% Tmax [4]: 100%
Cmax ([6]; plasma d-amphetamine): 59 ng/mL
% Tmax [6]: 100%
% Tmax [7]: 100%
